Assay results published in publication PMC11277476, “Synthesis and Biological Evaluation of Novel 2-Aroyl Benzofuran-Based Hydroxamic Acids as Antimicrotubule Agents” (International Journal of Molecular Sciences, 2024).
Where two headings read alike, the source gives them in different places.

What was measured:
A549 cells = assay: In vitro growth inhibition (resazurin, 72 h), A549; assay type: cell-based; settings: Homo sapiens, mean ± SE
HeLa cells = assay: In vitro growth inhibition (resazurin, 72 h), HeLa; assay type: cell-based; settings: Homo sapiens, concentration inhibiting tumor cell proliferation by 50%, mean ± SE
HT-29 cells [1] = assay: In vitro growth inhibition (resazurin, 72 h), HT-29; assay type: cell-based; settings: Homo sapiens, mean ± SE
[2] = test system: tubulin (colchicine site); assay: Inhibition of [3H]colchicine binding to tubulin; set-up: species or system bovine; settings: tubulin 0.5 µM, [3H]colchicine 5 µM, tested compound 5 µM
Experimental: (§1) Bovine brain tubulin was purified as described previously. To evaluate the effects of the compounds on tubulin assembly in vitro [77], varying concentrations were preincubated with 10 μM tubulin in 0.8 M monosodium glutamate (pH 6.6) at 30 °C, and the reaction mixtures were then cooled to 0 °C. After addition of GTP, the mixtures were transferred to 0 °C cuvettes in Beckman Coulter (Brea, CA, USA) DU-7400/DU-7500 recording spectrophotometers equipped with electronic temperature controllers and were warmed to 30 °C, and the assembly of tubulin was observed turbidimetrically. […] Inhibition of colchicine binding to tubulin was measured as described before, except that the reaction mixtures contained 0.5 μM tubulin and 5 μM each of [^3H]colchicine and test compound. Only one DEAE-cellulose filter was used per sample, and filtration was via gravity.

bovine brain tubulin = assay: Inhibition of tubulin polymerization (turbidimetric); assay type: biochemical; settings: tubulin at 10 μM; 20 min incubation at 30 °C; read-out: Tubulin Assembly IC50 ± SD
Experimental: as §1

human recombinant HDAC6 = molecular target: T1, human recombinant HDAC6 (Homo sapiens, UniProt Q9UBN7); assay: HDAC isoform inhibition, fluorogenic substrate, HDAC6; assay type: biochemical; settings: mean ± SE; for IC50: read-out: IC50 (µM) hHDAC6
T1 construct: purchased BPS Bioscience 50056
T1 sequence (Q9UBN7 1-1215): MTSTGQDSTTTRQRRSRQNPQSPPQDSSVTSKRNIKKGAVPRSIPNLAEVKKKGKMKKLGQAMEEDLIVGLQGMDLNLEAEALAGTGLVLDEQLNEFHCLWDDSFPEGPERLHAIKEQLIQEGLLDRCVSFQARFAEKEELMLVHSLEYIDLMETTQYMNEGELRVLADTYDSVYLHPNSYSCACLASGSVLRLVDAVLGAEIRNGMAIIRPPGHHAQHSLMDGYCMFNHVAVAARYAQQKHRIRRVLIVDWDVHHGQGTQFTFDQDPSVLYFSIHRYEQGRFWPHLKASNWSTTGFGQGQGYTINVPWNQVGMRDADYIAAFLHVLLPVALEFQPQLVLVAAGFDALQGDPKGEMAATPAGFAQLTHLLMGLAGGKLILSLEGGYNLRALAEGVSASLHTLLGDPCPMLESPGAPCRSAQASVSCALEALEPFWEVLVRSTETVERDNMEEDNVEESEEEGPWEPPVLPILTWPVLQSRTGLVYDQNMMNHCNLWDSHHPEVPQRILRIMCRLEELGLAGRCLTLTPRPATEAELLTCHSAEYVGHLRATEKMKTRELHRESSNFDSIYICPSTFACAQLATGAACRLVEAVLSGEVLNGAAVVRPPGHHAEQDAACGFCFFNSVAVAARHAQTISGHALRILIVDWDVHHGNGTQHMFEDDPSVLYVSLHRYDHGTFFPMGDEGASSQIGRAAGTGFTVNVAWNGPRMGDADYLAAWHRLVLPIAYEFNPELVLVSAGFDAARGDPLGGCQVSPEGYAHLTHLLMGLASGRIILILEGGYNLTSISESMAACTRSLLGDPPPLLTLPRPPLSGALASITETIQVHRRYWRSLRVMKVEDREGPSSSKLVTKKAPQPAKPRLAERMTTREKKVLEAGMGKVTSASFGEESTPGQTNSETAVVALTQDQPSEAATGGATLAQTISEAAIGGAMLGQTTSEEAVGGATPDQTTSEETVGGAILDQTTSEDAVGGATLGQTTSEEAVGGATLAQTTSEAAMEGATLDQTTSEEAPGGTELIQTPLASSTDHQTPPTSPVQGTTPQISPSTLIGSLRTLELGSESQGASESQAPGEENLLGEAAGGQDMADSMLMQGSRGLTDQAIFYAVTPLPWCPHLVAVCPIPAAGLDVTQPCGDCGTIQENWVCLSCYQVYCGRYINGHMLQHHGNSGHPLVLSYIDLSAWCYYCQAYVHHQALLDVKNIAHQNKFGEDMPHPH
Experimental: Further experiments were also carried out to evaluate the inhibitory activities of test compounds on selected HDAC isoforms. […] Following an incubation of 15 min at RT, fluorescence was measured in an EnSight multimodal plate reader (PerkinElmer, Boston, MA, USA) with an excitation wavelength of 360 nm and an emission wavelength of 450 nm.

MDA-MB-231 cells = assay: In vitro growth inhibition (resazurin, 72 h), MDA-MB-231; assay type: cell-based; settings: Homo sapiens, mean ± SE
MCF-7 cells = assay: In vitro growth inhibition (resazurin, 72 h), MCF-7; assay type: cell-based; settings: Homo sapiens, MCF7, mean ± SE
[3] = test system: panel of five human cancer cell lines (HeLa, MDA-MB-231, A549, HT-29, MCF-7); assay: In vitro growth inhibition, range over the panel of five cancer cell lines
Experimental: All the cell lines were purchased from the American Type Culture Collection (ATCC, Manassas, VA, USA). Drug stock solutions were prepared for each compound by dissolving them in DMSO at 10 mM.
Cancer cells were seeded in tissue treated, flat bottom, 384-well plates (Corning, Corning, NY, USA) according to their optimal density, in 27 μL of complete medium per well, using a Microlab STAR 96-CORE liquid handling system (Hamilton Bonaduz, Bonaduz, Switzerland) as described previously [75]. Each compound was tested in a 6-points 2-fold dose–response curve, and each dose was tested in duplicate within each plate, in three independent experiments. The final concentration of DMSO in the wells never exceeded 0.1%, which was the maximum concentration.
Only plates with acceptable Z-prime quality metrics (Z′ > 0.6) were further analyzed for the drug screening. Raw data were normalized according to the following equation: cell viability (%) = (x − POS)/(NEG − POS) × 100, where x is the relative fluorescence units (RFU) collected from each single well, NEG is the mean of intraplate negative controls (DMSO, corresponding to 100% cell viability), and POS is the mean of intraplate positive controls (Bortezomib 1 μΜ, equal to 0% cell viability).

HT-29 cells [4] = assay: Annexin V-PI flow cytometric analysis of apoptosis, HT-29; assay type: cell-based, human; settings: 96 h
Experimental: The quantification of apoptosis induced by the test compounds was carried out with flow cytometric analysis using the Annexin-V Fluos kit (Roche Diagnostics, Milan, Italy) following the manufacturer’s instructions. Cancer cells treated with the test compounds for the indicated time points and concentrations were then labeled with annexin V/FITC and PI and analyzed with BD FACS Celesta^TM Flow Cytometer (BD Bioscience, Franklin Lakes, NJ, USA) using the FL1 and FL3 channel, respectively, and FlowJo_v10.7.1 software.

HT-29 cells [5] = assay: Cell cycle analysis (PI, flow cytometry); assay type: cell-based, human; settings: 250 nM for 24 h (figure legend)
Experimental: HT29 cells were treated with the indicated compounds for 24 h and then harvested and fixed in 70% ice-cold ethanol for 24 h. The cells were next treated with a 0.1% v/v solution of Triton X-100 in phosphate buffered saline (PBS) containing 10 μg/mL RNAse A and 20 μg/mL PI. The cells were incubated at room temperature for 30 min and then analyzed on a BD FACS Celesta^TM Flow Cytometer (BD Bioscience, Franklin Lakes, NJ, USA) in the FL3 channel. DNA histograms were analyzed using FlowJo_v10.7.1 software (BD Bioscience, Franklin Lakes, NJ, USA).

[6] = read-out: IC50 values, range or bound over the cancer cell line panel

Structure (SMILES)	IC50 (A549 cells)	IC50 (HeLa cells)	IC50 (HT-29 cells [1])	Colchicine Binding % Inhibition ± SD [2]	IC50 (bovine brain tubulin)	IC50 (human recombinant HDAC6)	IC50 (MDA-MB-231 cells)	melting point	IC50 (MCF-7 cells)	IC50 [3, 6]	IC50 ([3]; read-out: IC50 values, range over the cancer cell line panel)	IC50 (µM) hHDAC6 (human recombinant HDAC6)	induction of apoptosis / cell death (annexin V/PI), in words (HT-29 cells [4])	Percentage of HT-29 cells in G1 phase (HT-29 cells [5])	Percentage of HT-29 cells in G2/M phase (HT-29 cells [5])	Percentage of HT-29 cells in S phase (HT-29 cells [5])
COc1cc2oc(C(=O)c3ccc(OC)c(OC)c3)c(C)c2cc1/C=C/C(=O)NO [Compound 6b, (E)-3-(2-(3,4-Dimethoxybenzoyl)-6-methoxy-3-methylbenzofuran-5-yl)-N-hydroxyacrylamide]	187 ± 1.02 nM	36.8 ± 4.13 nM	401 ± 2.03 nM	41 ± 5%	1100 ± 200 nM	> 30 µM	72.6 ± 5.03 nM	198 to 199 °C	40 ± 4 nM							
COc1ccc(C(=O)c2oc3cc(OC)c(/C=C/C(=O)NO)cc3c2C)cc1 [Compound 6d, (E)-N-Hydroxy-3-(6-methoxy-2-(4-methoxybenzoyl)-3-methylbenzofuran-5-yl)acrylamide]	222 ± 1.09 nM	47.6 ± 1.22 nM	881 ± 8.23 nM	27 ± 4%	1700 ± 100 nM	12.6 ± 0.8 µM	322 ± 12.4 nM	168 to 170 °C	59 ± 10 nM							
COc1cc(C(=O)c2oc3ccc(/C=C/C(=O)NO)cc3c2C)cc(OC)c1OC [Compound 6h, (E)-N-Hydroxy-3-(3-methyl-2-(3,4,5-trimethoxybenzoyl)benzofuran-5-yl)acrylamide]	> 10000 nM	> 10000 nM	> 10000 nM				> 10000 nM	188 to 190 °C	> 10000 nM	> 10000 nM						
C#Cc1cc2c(C)c(C(=O)c3cc(OC)c(OC)c(OC)c3)oc2cc1OC [Compound 8, (5-ethynyl-6-methoxy-3-methyl-benzofuran-2-yl)-(3,4,5-trimethoxyphenyl)methanone]	122 ± 8.6 nM	18.2 ± 0.02 nM	207 ± 14 nM				81.2 ± 6 nM	186 to 188 °C			18 to 207 nM					
COc1cccc(C(=O)c2oc3cc(OC)c(C#CC(=O)NO)cc3c2C)c1 [Compound 11e, N-Hydroxy-3-[6-methoxy-2-(3-methoxybenzoyl)-3-methyl-1-benzofuran-5-yl]prop-2-ynamide]	94.4 ± 3.03 nM	8.4 ± 0.98 nM	4.89 ± 0.03 nM	81 ± 3%	420 ± 30 nM	> 30 µM	96.7 ± 1.65 nM		15 nM			does not show any activity at the highest concentration tested				
CC(/C=C/C(=O)NO)=C\[C@@H](C)C(=O)c1ccc(N(C)C)cc1 [TSA, Trichostatin, reference compound]													sensitive only to the higher dose	43.90%	38.65%	17.44%

Second part, led by results:

IC50 (A549 cells)	IC50 (HeLa cells)	IC50 (HT-29 cells [1])	Colchicine Binding % Inhibition ± SD [2]	IC50 (bovine brain tubulin)	IC50 (human recombinant HDAC6)	IC50 (MDA-MB-231 cells)	melting point	IC50 (MCF-7 cells)	IC50 [3, 6]	Structure (SMILES)	IC50 ([3]; read-out: IC50 values, range over the cancer cell line panel)	IC50 (µM) hHDAC6 (human recombinant HDAC6)	induction of apoptosis / cell death (annexin V/PI), in words (HT-29 cells [4])	Percentage of HT-29 cells in G1 phase (HT-29 cells [5])	Percentage of HT-29 cells in G2/M phase (HT-29 cells [5])	Percentage of HT-29 cells in S phase (HT-29 cells [5])
972 ± 7.47 nM	69.4 ± 1.45 nM	2.16 ± 0.86 nM	30 ± 2%	2700 ± 70 nM		377 ± 1.09 nM	276 to 277 °C	> 10000 nM		COc1cc2oc(C(=O)c3ccc(OC)c(OC)c3)c(C)c2cc1C#CC(=O)NO [Compound 11b, 3-[2-(3,4-Dimethoxybenzoyl)-6-methoxy-3-methyl-1-benzofuran-5-yl]-N-hydroxyprop-2-ynamide]						
45.3 ± 2.93 nM	7.3 ± 0.03 nM	96.5 ± 2.45 nM	82 ± 1%	560 ± 60 nM	13.8 ± 0.8 µM	43.9 ± 3 nM	248 to 250 °C	20 ± 0.7 nM		COc1cc(OC)cc(C(=O)c2oc3cc(OC)c(C#CC(=O)NO)cc3c2C)c1 [Compound 11c, 3-[2-(3,5-Dimethoxybenzoyl)-6-methoxy-3-methyl-1-benzofuran-5-yl]-N-hydroxyprop-2-ynamide]						
5.07 ± 0.22 nM	1.43 ± 0.67 nM	> 10000 nM				4.09 ± 0.06 nM	222 to 224 °C		1500 to 10000 nM	COc1ccc(C(=O)c2oc3cc(OC)c(C#CC(=O)NO)cc3c2C)cc1 [Compound 11d, N-Hydroxy-3-[6-methoxy-2-(4-methoxybenzoyl)-3-methyl-1-benzofuran-5-yl]prop-2-ynamide]						
276 ± 6.74 nM	60.5 ± 2.26 nM	4568 ± 21.4 nM	20 ± 2%	5400 ± 100 nM		345 ± 4.03 nM	243 to 245 °C	240 ± 10 nM		COc1cc2oc(C(=O)c3ccccc3OC)c(C)c2cc1C#CC(=O)NO [Compound 11f, N-Hydroxy-3-[6-methoxy-2-(2-methoxybenzoyl)-3-methyl-1-benzofuran-5-yl]prop-2-ynamide]						
206 ± 2.92 nM	15.2 ± 0.02 nM	1.58 ± 0.06 nM				101 ± 0.03 nM	205 to 206 °C			COc1cc2oc(C(=O)c3ccccc3)c(C)c2cc1C#CC(=O)NO [Compound 11g, 3-(2-Benzoyl-6-methoxy-3-methyl-benzofuran-5-yl)prop-2yne hydroxamic acid]						
> 10000 nM	> 10000 nM	> 10000 nM				> 10000 nM	254 to 256 °C	> 10000 nM	> 10000 nM	COc1cc(C(=O)c2oc3ccc(C#CC(=O)NO)cc3c2C)cc(OC)c1OC [Compound 11h, 3-[3-Methyl-2-(3,4,5-trimethoxybenzoyl)benzofuran-5-yl]prop-2-yne hydroxamic acid]						
